{"source": "paper PMC9150124", "about": "“Design of a Potent, Selective, and Brain-Penetrant Inhibitor of Wnt-Deactivating Enzyme Notum by Optimization of a Crystallographic Fragment Hit” (Journal of Medicinal Chemistry, 2022)", "assay_in_all_cases": "SelectScreen kinase profiling, SSBK LanthaScreen Binding SP Technology", "key": {"[1]": {"molecular_target": "kinase named in conditions (Homo sapiens, UniProt O94921)", "details": "CDK14 (PFTK1)/cyclin Y, 10 μM"}, "[2]": {"molecular_target": "kinase named in conditions (Homo sapiens, UniProt P00519, M351T)", "details": "ABL1 M351T, 10 μM"}, "[3]": {"molecular_target": "kinase named in conditions (Homo sapiens, UniProt P00519, Q252H)", "details": "ABL1 Q252H, 10 μM"}, "[4]": {"molecular_target": "kinase named in conditions (Homo sapiens, UniProt P06241)", "details": "FYN A, 10 μM"}, "[5]": {"molecular_target": "kinase named in conditions (Homo sapiens, UniProt P07949, M918T)", "details": "RET M918T, 10 μM"}, "[6]": {"molecular_target": "kinase named in conditions (Homo sapiens, UniProt P08581, D1228H)", "details": "MET D1228H, 10 μM"}, "[7]": {"molecular_target": "kinase named in conditions (Homo sapiens, UniProt P10721, D816V)", "details": "KIT D816V, 10 μM"}, "[8]": {"molecular_target": "kinase named in conditions (Homo sapiens, UniProt P22607, G697C)", "details": "FGFR3 G697C, 10 μM"}, "[9]": {"molecular_target": "kinase named in conditions (Homo sapiens, UniProt P27037)", "details": "ACVR2A, 10 μM"}, "[10]": {"molecular_target": "kinase named in conditions (Homo sapiens, UniProt P36897)", "details": "TGFBR1 (ALK5), 10 μM"}, "[11]": {"molecular_target": "kinase named in conditions (Homo sapiens, UniProt P42680)", "details": "TEC, 10 μM"}, "[12]": {"molecular_target": "kinase named in conditions (Homo sapiens, UniProt P45983)", "sequence (P45983 whole entry)": "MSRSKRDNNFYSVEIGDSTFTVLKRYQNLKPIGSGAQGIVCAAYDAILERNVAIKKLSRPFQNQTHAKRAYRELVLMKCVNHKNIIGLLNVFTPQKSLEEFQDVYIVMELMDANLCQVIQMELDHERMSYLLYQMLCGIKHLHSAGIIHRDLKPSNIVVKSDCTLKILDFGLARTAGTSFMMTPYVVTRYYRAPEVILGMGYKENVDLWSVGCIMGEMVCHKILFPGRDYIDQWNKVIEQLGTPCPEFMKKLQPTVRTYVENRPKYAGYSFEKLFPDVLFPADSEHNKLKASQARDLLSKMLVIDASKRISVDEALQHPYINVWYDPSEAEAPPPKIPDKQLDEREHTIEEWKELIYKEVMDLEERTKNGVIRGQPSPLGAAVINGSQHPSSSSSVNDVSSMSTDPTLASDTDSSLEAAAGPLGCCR", "details": "MAPK8 (JNK1), 10 μM"}, "[13]": {"molecular_target": "kinase named in conditions (Homo sapiens, UniProt P57058)", "sequence (P57058 whole entry)": "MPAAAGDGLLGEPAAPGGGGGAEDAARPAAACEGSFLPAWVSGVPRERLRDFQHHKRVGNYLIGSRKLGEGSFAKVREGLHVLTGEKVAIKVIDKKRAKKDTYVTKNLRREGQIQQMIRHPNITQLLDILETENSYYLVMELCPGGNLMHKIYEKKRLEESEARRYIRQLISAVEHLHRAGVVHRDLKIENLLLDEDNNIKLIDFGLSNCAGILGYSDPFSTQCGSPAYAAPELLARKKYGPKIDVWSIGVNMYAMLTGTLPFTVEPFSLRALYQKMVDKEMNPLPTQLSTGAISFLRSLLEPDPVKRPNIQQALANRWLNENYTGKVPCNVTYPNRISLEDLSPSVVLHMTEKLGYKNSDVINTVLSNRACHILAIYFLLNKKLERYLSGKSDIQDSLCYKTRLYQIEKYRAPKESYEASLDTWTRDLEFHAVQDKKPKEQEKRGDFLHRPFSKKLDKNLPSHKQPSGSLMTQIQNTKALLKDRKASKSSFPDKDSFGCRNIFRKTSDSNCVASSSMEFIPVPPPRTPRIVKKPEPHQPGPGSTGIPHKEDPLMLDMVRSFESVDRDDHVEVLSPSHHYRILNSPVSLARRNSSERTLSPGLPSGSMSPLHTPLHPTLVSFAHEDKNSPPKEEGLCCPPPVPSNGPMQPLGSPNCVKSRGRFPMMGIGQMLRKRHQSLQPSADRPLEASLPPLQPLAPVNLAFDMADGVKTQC", "details": "HUNK, 10 μM"}, "[14]": {"molecular_target": "kinase named in conditions (Homo sapiens, UniProt Q02750)", "details": "MAP2K1 (MEK1), 10 μM"}, "[15]": {"molecular_target": "kinase named in conditions (Homo sapiens, UniProt Q04771)", "details": "ACVR1 (ALK2), 10 μM"}, "[16]": {"molecular_target": "kinase named in conditions (Homo sapiens, UniProt Q08345)", "details": "DDR1, 10 μM"}, "[17]": {"molecular_target": "kinase named in conditions (Homo sapiens, UniProt Q12866, A708S)", "details": "MERTK (cMER) A708S, 10 μM"}, "[18]": {"molecular_target": "kinase named in conditions (Homo sapiens, UniProt Q13705)", "details": "ACVR2B, 10 μM"}, "[19]": {"molecular_target": "kinase named in conditions (Homo sapiens, UniProt Q14004)", "details": "read-out: % Inhibition mean"}, "[20]": {"molecular_target": "kinase named in conditions (Homo sapiens, UniProt Q15569)", "details": "TESK1, 10 μM"}, "[21]": {"molecular_target": "kinase named in conditions (Homo sapiens, UniProt Q16584)", "sequence (Q16584 whole entry)": "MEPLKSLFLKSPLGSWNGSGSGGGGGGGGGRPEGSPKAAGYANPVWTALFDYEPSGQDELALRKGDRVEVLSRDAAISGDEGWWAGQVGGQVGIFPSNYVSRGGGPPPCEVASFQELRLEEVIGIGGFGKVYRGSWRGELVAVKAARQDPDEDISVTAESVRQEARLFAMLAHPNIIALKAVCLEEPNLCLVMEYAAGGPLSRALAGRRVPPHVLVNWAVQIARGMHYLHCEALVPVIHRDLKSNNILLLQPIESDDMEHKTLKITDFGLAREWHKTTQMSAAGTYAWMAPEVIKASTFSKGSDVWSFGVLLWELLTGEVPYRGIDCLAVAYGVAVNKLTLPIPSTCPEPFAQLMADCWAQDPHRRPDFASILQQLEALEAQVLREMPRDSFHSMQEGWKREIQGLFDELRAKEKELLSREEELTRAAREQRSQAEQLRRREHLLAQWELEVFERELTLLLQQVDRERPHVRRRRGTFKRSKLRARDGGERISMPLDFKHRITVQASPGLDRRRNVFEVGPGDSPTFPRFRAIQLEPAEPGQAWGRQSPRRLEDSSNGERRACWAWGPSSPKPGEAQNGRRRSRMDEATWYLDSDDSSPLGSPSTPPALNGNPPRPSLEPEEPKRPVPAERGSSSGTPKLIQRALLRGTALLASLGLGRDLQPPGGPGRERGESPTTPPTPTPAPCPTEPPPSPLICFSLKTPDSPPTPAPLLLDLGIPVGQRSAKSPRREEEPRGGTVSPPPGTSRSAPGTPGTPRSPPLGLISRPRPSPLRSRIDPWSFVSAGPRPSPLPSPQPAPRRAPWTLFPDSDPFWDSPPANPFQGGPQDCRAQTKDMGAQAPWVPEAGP", "details": "MAP3K11 (MLK3), 10 μM"}, "[22]": {"molecular_target": "kinase named in conditions (Homo sapiens, UniProt Q16832, N456S)", "details": "DDR2 N456S, 10 μM"}, "[23]": {"molecular_target": "kinase named in conditions (Homo sapiens, UniProt Q76MJ5)", "sequence (Q76MJ5 35-926)": "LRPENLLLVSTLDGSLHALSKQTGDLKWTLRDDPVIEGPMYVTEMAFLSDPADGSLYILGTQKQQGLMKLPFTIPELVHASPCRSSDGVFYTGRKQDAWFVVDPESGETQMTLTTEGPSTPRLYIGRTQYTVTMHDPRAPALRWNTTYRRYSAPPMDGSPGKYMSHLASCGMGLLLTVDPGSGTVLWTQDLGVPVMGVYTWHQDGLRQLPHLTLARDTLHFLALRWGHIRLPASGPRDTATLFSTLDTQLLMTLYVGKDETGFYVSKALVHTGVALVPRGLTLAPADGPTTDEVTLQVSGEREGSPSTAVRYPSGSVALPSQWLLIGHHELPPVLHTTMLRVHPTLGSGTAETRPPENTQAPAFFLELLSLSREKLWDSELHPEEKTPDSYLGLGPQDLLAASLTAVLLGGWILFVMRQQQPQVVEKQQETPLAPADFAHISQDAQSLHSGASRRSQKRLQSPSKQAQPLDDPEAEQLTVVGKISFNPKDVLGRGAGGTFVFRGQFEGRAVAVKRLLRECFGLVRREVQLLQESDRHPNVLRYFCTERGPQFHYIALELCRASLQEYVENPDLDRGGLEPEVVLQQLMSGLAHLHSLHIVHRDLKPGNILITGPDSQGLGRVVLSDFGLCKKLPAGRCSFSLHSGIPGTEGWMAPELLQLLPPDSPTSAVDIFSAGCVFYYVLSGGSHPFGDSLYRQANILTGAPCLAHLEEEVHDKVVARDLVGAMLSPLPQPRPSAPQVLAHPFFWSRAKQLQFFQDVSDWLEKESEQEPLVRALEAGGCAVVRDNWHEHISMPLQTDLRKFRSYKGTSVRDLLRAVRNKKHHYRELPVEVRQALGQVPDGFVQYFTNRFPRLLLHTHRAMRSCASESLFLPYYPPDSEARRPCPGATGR", "details": "ERN2, 10 μM"}, "[24]": {"molecular_target": "kinase named in conditions (Homo sapiens, UniProt Q86YV6)", "details": "MYLK4, 10 μM"}, "[25]": {"molecular_target": "kinase named in conditions (Homo sapiens, UniProt Q8IVH8)", "sequence (Q8IVH8 whole entry)": "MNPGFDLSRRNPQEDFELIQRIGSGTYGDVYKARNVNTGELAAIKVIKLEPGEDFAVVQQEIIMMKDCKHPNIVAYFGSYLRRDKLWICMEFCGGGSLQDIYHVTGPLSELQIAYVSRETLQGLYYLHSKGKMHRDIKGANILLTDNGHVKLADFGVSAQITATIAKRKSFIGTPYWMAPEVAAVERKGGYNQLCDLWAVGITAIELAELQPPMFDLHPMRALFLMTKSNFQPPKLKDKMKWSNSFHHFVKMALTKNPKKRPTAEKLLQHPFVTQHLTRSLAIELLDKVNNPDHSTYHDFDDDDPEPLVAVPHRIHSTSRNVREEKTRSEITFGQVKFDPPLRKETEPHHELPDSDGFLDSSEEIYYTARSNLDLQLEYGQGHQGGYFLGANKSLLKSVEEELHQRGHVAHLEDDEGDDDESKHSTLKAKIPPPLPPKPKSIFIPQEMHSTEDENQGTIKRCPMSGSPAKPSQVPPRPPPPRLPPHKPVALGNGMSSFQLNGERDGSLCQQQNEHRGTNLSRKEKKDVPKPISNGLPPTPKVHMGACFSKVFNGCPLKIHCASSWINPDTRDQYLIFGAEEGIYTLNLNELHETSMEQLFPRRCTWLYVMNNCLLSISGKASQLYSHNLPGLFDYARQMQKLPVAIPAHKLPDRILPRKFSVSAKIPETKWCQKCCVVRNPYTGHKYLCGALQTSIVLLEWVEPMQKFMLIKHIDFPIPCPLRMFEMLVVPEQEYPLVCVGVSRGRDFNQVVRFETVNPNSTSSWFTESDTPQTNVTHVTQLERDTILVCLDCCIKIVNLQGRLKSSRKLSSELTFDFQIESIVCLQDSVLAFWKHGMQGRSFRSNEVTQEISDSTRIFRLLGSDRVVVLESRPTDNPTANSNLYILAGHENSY", "details": "MAP4K3 (GLK), 10 μM"}, "[26]": {"molecular_target": "kinase named in conditions (Homo sapiens, UniProt Q8NFD2)", "details": "ANKK1, 10 μM"}, "[27]": {"molecular_target": "kinase named in conditions (Homo sapiens, UniProt Q99558)", "details": "MAP3K14 (NIK), 10 μM"}, "[28]": {"molecular_target": "kinase named in conditions (Homo sapiens, UniProt Q9HAZ1)", "sequence (Q9HAZ1 whole entry)": "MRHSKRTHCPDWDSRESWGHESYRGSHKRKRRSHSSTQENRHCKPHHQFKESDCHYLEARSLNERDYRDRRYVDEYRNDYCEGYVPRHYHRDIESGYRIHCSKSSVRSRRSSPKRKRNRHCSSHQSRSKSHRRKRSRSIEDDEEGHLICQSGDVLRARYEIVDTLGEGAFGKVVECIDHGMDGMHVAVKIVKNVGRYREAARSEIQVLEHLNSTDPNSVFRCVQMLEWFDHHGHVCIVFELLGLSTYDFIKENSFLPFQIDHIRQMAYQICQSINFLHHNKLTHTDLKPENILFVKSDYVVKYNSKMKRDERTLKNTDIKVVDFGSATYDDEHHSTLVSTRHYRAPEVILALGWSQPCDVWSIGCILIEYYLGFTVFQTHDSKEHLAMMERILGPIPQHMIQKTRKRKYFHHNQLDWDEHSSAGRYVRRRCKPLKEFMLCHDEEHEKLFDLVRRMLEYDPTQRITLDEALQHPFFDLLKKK", "details": "CLK4, 10 μM"}, "[29]": {"molecular_target": "kinase named in conditions (Homo sapiens, UniProt Q9NY57)", "details": "STK32B (YANK2), 10 μM"}, "[30]": {"molecular_target": "kinase named in conditions (Homo sapiens, UniProt Q9UEW8)", "details": "STK39 (STLK3), 10 μM"}, "[31]": {"molecular_target": "kinase named in conditions (Homo sapiens, UniProt Q9UKI8)", "details": "TLK1, 10 μM"}, "[32]": {"molecular_target": "kinase named in conditions (Homo sapiens, UniProt Q9UM73, C1156Y)", "details": "ALK C1156Y, 10 μM"}, "[33]": {"molecular_target": "kinase named in conditions (Homo sapiens, UniProt Q9UPZ9)", "sequence (Q9UPZ9 whole entry)": "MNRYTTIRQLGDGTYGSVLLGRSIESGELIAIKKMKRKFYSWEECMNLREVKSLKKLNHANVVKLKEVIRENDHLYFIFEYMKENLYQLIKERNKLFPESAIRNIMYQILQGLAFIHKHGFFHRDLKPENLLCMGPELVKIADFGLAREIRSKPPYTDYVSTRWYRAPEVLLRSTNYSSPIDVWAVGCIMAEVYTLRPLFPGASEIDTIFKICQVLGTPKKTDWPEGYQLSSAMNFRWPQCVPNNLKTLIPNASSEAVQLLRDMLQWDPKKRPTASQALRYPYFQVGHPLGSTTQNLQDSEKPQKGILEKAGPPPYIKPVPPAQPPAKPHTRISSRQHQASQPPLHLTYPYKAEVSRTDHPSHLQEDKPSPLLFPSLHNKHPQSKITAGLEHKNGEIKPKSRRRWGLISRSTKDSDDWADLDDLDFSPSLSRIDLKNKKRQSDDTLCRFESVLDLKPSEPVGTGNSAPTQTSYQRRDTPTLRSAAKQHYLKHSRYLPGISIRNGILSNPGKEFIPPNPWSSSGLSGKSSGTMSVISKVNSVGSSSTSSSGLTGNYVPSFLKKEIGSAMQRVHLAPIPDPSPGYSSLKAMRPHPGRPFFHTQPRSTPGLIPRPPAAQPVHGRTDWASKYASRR", "details": "ICK, 10 μM"}, "[34]": {"molecular_target": "kinase named in conditions (Homo sapiens, UniProt Q9Y2K2)", "details": "SIK3, 10 μM"}}, "data": [{"smiles": "FC(F)(F)c1c(Cl)ccc(-n2ccnn2)c1Cl", "note": "[8l, 1-(2,4-Dichloro-3-(trifluoromethyl)phenyl)-1H-1,2,3-triazole]", "values": [{"measurement": "inhibition at 10 µM", "setting": "[1]", "value": 43, "unit": "%"}, {"measurement": "inhibition at 10 µM", "setting": "[2]", "value": 24, "unit": "%"}, {"measurement": "inhibition at 10 µM", "setting": "[3]", "value": 10, "unit": "%"}, {"measurement": "inhibition at 10 µM", "setting": "[4]", "value": -8, "unit": "%"}, {"measurement": "inhibition at 10 µM", "setting": "[5]", "value": 9, "unit": "%"}, {"measurement": "inhibition at 10 µM", "setting": "[6]", "value": -13, "unit": "%"}, {"measurement": "inhibition at 10 µM", "setting": "[7]", "value": 26, "unit": "%"}, {"measurement": "inhibition at 10 µM", "setting": "[8]", "value": -1, "unit": "%"}, {"measurement": "inhibition at 10 µM", "setting": "[9]", "value": 4, "unit": "%"}, {"measurement": "inhibition at 10 µM", "setting": "[10]", "value": -1, "unit": "%"}, {"measurement": "inhibition at 10 µM", "setting": "[11]", "value": 0, "unit": "%"}, {"measurement": "inhibition at 10 µM", "setting": "[12]", "value": -9, "unit": "%"}, {"measurement": "inhibition at 10 µM", "setting": "[13]", "value": 1, "unit": "%"}, {"measurement": "inhibition at 10 µM", "setting": "[14]", "value": 26, "unit": "%"}, {"measurement": "inhibition at 10 µM", "setting": "[15]", "value": 12, "unit": "%"}, {"measurement": "inhibition at 10 µM", "setting": "[16]", "value": 0, "unit": "%"}, {"measurement": "inhibition at 10 µM", "setting": "[17]", "value": -3, "unit": "%"}, {"measurement": "inhibition at 10 µM", "setting": "[18]", "value": 1, "unit": "%"}, {"measurement": "inhibition at 10 µM", "setting": "[19]", "value": 38, "unit": "%"}, {"measurement": "inhibition at 10 µM", "setting": "[20]", "value": 7, "unit": "%"}, {"measurement": "inhibition at 10 µM", "setting": "[21]", "value": 3, "unit": "%"}, {"measurement": "inhibition at 10 µM", "setting": "[22]", "value": 26, "unit": "%"}, {"measurement": "inhibition at 10 µM", "setting": "[23]", "value": 9, "unit": "%"}, {"measurement": "inhibition at 10 µM", "setting": "[24]", "value": -5, "unit": "%"}, {"measurement": "inhibition at 10 µM", "setting": "[25]", "value": 6, "unit": "%"}, {"measurement": "inhibition at 10 µM", "setting": "[26]", "value": -4, "unit": "%"}, {"measurement": "inhibition at 10 µM", "setting": "[27]", "value": 16, "unit": "%"}, {"measurement": "inhibition at 10 µM", "setting": "[28]", "value": 3, "unit": "%"}, {"measurement": "inhibition at 10 µM", "setting": "[29]", "value": 12, "unit": "%"}, {"measurement": "inhibition at 10 µM", "setting": "[30]", "value": 13, "unit": "%"}, {"measurement": "inhibition at 10 µM", "setting": "[31]", "value": 7, "unit": "%"}, {"measurement": "inhibition at 10 µM", "setting": "[32]", "value": 4, "unit": "%"}, {"measurement": "inhibition at 10 µM", "setting": "[33]", "value": -6, "unit": "%"}, {"measurement": "inhibition at 10 µM", "setting": "[34]", "value": 4, "unit": "%"}]}]}
